US20250145594A1, “MODULATORS OF THE INTEGRATED STRESS PATHWAY” (Calico Life Sciences LLC, priority 2020, published 2025)
pEC50: −log10 of the molar value.

Tested on: ATF4 luciferase reporter in HEK293T cells
Assay: ATF4-Luc assay (in vitro model of VWMD)
Format: cell-based, human
Settings: Homo sapiens, HEK-293T, 7 h, HEK293T cells carrying the ATF4 luciferase reporter, 1 μg/mL tunicamycin, One Glo luminescence
Method: In order to test exemplary compounds of the invention in a cellular context, a stable VWMD cell line was first constructed. The ATF4 reporter was prepared by fusing the human full-length ATF4 5′-UTR (NCBI Accession No. BC022088.2) in front of the firefly luciferase (FLuc) coding sequence lacking the initiator methionine as described in Sidrauski et al (eLife 2013). The construct was used to produce recombinant retroviruses using standard methods and the resulting viral supernatant was used to transduce HEK293T cells, which were then subsequently selected with puromycin to generate a stable cell line.
HEK293T cells carrying the ATF4 luciferase reporter were plated on polylysine coated 384-well plates (Greiner Bio-one) at 30,000 cells per well. Cells were treated the next day with 1 μg/mL tunicamycin and 200 nM of a compound of Formula (I) for 7 hours. Luminescence was measured using One Glo (Promega) as specified by the manufacturer. Cells were maintained in DMEM with L-glutamine supplemented with 10% heat-inactivated FBS (Gibco) and Antibiotic-Antimycotic solution (Gibco).
Table 4 below summarizes the EC50 data obtained using the ATF4-Luc assay for exemplary compounds of the invention.

SMILES	pEC50
O=C(NC12CCC(n3cc(-c4ccc(C(F)(F)F)cn4)cn3)(C1)C2)[C@H]1C[C@@H](O)c2cc(Cl)c(F)cc2O1 [Compound 627, (2R,4R)-6-chloro-7-fluoro-4-hydroxy-N-(4-{4-[5-(trifluoromethyl)pyridin-2-yl]-1H-pyrazol-1-yl}bicyclo[2.1.1]hexan-1-yl)-3,4-dihydro-2H-1-benzopyran-2-carboxamide]	> 8.00
COCc1ccc2nn(C34CC(NC(=O)[C@H]5C[C@@H](O)c6cc(Cl)ccc6O5)(C3)C4)cc2c1 [Compound 510, (2R,4R)-6-chloro-4-hydroxy-N-{3-[5-(methoxymethyl)-2H-indazol-2-yl]bicyclo[1.1.1]pentan-1-yl}-3,4-dihydro-2H-1-benzopyran-2-carboxamide]	7.30 to 8.00
O=C(CO[C@H]1C[C@@H](OC(F)(F)F)C1)N[C@H]1C[C@H]2C[C@@H]1C[C@@H]2NC(=O)[C@H]1C[C@@H](O)c2cc(C(F)(F)F)c(F)cc2O1 [Compound 646, (2R,4R)-7-fluoro-4-hydroxy-N-[(1R,2S,4R,5S)-5-(2-{[(1s,3R)-3-(trifluoromethoxy)cyclobutyl]oxy}acetamido)bicyclo[2.2.1]heptan-2-yl]-6-(trifluoromethyl)-3,4-dihydro-2H-1-benzopyran-2-carboxamide]	> 8.00
COc1ccc2nn(C34CC(NC(=O)[C@H]5C[C@@H](O)c6cc(Cl)ccc6O5)(C3)C4)cc2c1 [Compound 501, (2R,4R)-6-chloro-4-hydroxy-N-[3-(5-methoxy-2H-indazol-2-yl)bicyclo[1.1.1]pentan-1-yl]-3,4-dihydro-2H-1-benzopyran-2-carboxamide]	7.30 to 8.00
O=C(NC12CC(n3cc(N4CC[C@@H](OC(F)(F)F)C4)cn3)(C1)C2)[C@H]1C[C@@H](O)c2cc(C(F)(F)F)ccc2O1 [Compound 579, (2R,4R)-4-hydroxy-N-(3-{4-[(3R)-3-(trifluoromethoxy)pyrrolidin-1-yl]-1H-pyrazol-1-yl}bicyclo[1.1.1]pentan-1-yl)-6-(trifluoromethyl)-3,4-dihydro-2H-1-benzopyran-2-carboxamide]	> 8.00
O=C(NC12CC(n3cc(-c4ccc(OC(F)(F)F)cn4)cn3)(C1)C2)[C@H]1C[C@@H](O)c2cc(F)ccc2O1 (single isomer, unassigned) [Compound 475]	> 8.00
Cc1ccc(-c2cnn(C34CC(NC(=O)[C@H]5C[C@@H](O)c6cc(Cl)ccc6O5)(C3)C4)c2)nc1 [Compound 554, (2R,4R)-6-chloro-4-hydroxy-N-{3-[4-(5-methylpyridin-2-yl)-1H-pyrazol-1-yl]bicyclo[1.1.1]pentan-1-yl}-3,4-dihydro-2H-1-benzopyran-2-carboxamide]	> 8.00
O=C(NC12CC(n3cc(-c4ccc(OC(F)(F)F)cn4)cn3)(C1)C2)[C@H]1C[C@@H](O)c2cc(F)ccc2O1 (racemic) [Compound 552, rac-(2R,4R)-6-fluoro-4-hydroxy-N-(3-{4-[5-(trifluoromethoxy)pyridin-2-yl]-1H-pyrazol-1-yl}bicyclo[1.1.1]pentan-1-yl)-3,4-dihydro-2H-1-benzopyran-2-carboxamide]	> 8.00
O=C(COc1ccc(C(F)(F)F)cc1O)NC12CC(n3cc([C@H]4C[C@@H](OC(F)(F)F)C4)nn3)(C1)C2 [Compound 615, 2-[2-hydroxy-4-(trifluoromethyl)phenoxy]-N-(3-{4-[(1s,3s)-3-(trifluoromethoxy)cyclobutyl]-1H-1,2,3-triazol-1-yl}bicyclo[1.1.1]pentan-1-yl)acetamide]	7.30 to 8.00
O=C(NC12CCC(n3cc(C(=O)N4CC[C@H](OC(F)(F)F)C4)cn3)(CC1)CC2)[C@H]1C[C@@H](O)c2cc(Cl)ccc2O1 [Compound 331, (2R,4R)-6-chloro-4-hydroxy-N-(4-{4-[(3S)-3-(trifluoromethoxy)pyrrolidine-1-carbonyl]-1H-pyrazol-1-yl}bicyclo[2.2.2]octan-1-yl)-3,4-dihydro-2H-1-benzopyran-2-carboxamide]	> 8.00
O=C(NC12CC(n3cc(-c4ccn(C(F)(F)F)n4)cn3)(C1)C2)[C@H]1C[C@@H](O)c2cc(Cl)c(F)cc2O1 [Compound 562, (2R,4R)-6-chloro-7-fluoro-4-hydroxy-N-{3-[1-(trifluoromethyl)-1H,1′H-[3,4‘-bipyrazol]-1’-yl]bicyclo[1.1.1]pentan-1-yl}-3,4-dihydro-2H-1-benzopyran-2-carboxamide]	> 8.00
O=C(CO[C@H]1C[C@@H](OC(F)(F)F)C1)NC12CC(NC(=O)[C@@H]3C[C@@H](O)c4cc(Cl)c(Cl)cc4O3)(C1)C2 [Compound 492, (2S,4R)-6,7-dichloro-4-hydroxy-N-[3-(2-{[(1s,3R)-3-(trifluoromethoxy)cyclobutyl]oxy}acetamido)bicyclo[1.1.1]pentan-1-yl]-3,4-dihydro-2H-1-benzopyran-2-carboxamide]	> 8.00
O=C(NC12CC(n3cc(-c4ccc(OC(F)(F)F)c(F)c4)cn3)(C1)C2)[C@@H]1C[C@@H](O)c2cc(Cl)ccc2O1 [Compound 306, (2S,4R)-6-chloro-N-(3-{4-[3-fluoro-4-(trifluoromethoxy)phenyl]-1H-pyrazol-1-yl}bicyclo[1.1.1]pentan-1-yl)-4-hydroxy-3,4-dihydro-2H-1-benzopyran-2-carboxamide]	> 8.00
O=C(NC12CC(n3cc(-c4ccc(OC(F)(F)F)cn4)cn3)(C1)C2)[C@@H]1C[C@@H](O)c2cc(Cl)ccc2O1 [Compound 346, (2S,4R)-6-chloro-4-hydroxy-N-(3-{4-[5-(trifluoromethoxy)pyridin-2-yl]-1H-pyrazol-1-yl}bicyclo[1.1.1]pentan-1-yl)-3,4-dihydro-2H-1-benzopyran-2-carboxamide]	> 8.00
O=C(NC12CC(n3cc(C(=O)N4CC[C@H](OC(F)(F)F)C4)cn3)(C1)C2)[C@@H]1C[C@@H](O)c2cc(C(F)(F)F)ccc2O1 [Compound 378, (2S,4R)-4-hydroxy-N-(3-{4-[(3S)-3-(trifluoromethoxy)pyrrolidine-1-carbonyl]-1H-pyrazol-1-yl}bicyclo[1.1.1]pentan-1-yl)-6-(trifluoromethyl)-3,4-dihydro-2H-1-benzopyran-2-carboxamide]	> 8.00
O=C(N[C@H]1C[C@H]2CC[C@@H](C1)N2CCCOc1ccc(Cl)cc1)C1C[C@@H](O)c2cc(Cl)ccc2O1 (stereo partly drawn) [Compound 125, (2R,4R)-6-chloro-N-{(1R,3r,5S)-8-[3-(4-chlorophenoxy)propyl]-8-azabicyclo[3.2.1]octan-3-yl}-4-hydroxy-3,4-dihydro-2H-1-benzopyran-2-carboxamide]	6.60 to 7.30
COc1ccc2nn([C@H]3CC[C@H](NC(=O)[C@H]4C[C@@H](O)c5cc(Cl)ccc5O4)CC3)cc2n1 [Compound 508, (2R,4R)-6-chloro-4-hydroxy-N-[(1r,4R)-4-(5-methoxy-2H-pyrazolo[4,3-b]pyridin-2-yl)cyclohexyl]-3,4-dihydro-2H-1-benzopyran-2-carboxamide]	7.30 to 8.00
CCO[C@H]1CCN(C(=O)c2cnn(C34CC(NC(=O)[C@H]5C[C@@H](O)c6cc(Cl)ccc6O5)(C3)C4)c2)C1 [Compound 359, (2R,4R)-6-chloro-N-(3-{4-[(3S)-3-ethoxypyrrolidine-1-carbonyl]-1H-pyrazol-1-yl}bicyclo[1.1.1]pentan-1-yl)-4-hydroxy-3,4-dihydro-2H-1-benzopyran-2-carboxamide]	7.30 to 8.00
O=C(CO[C@H]1C[C@@H](OC(F)(F)F)C1)NC12CC(NC(=O)[C@H]3C[C@H](O)c4cc(C(F)(F)F)c(F)cc4O3)(C1)C2 [Compound 643, (2R,4S)-7-fluoro-4-hydroxy-N-[3-(2-{[(1s,3S)-3-(trifluoromethoxy)cyclobutyl]oxy}acetamido)bicyclo[1.1.1]pentan-1-yl]-6-(trifluoromethyl)-3,4-dihydro-2H-1-benzopyran-2-carboxamide]	> 8.00
O=C(NC12CC(c3ccc(C(=O)N4CC[C@H](OC(F)(F)F)C4)cn3)(C1)C2)[C@H]1C[C@@H](O)c2cc(Cl)ccc2O1 [Compound 534, (2R,4R)-6-chloro-4-hydroxy-N-(3-{5-[(3S)-3-(trifluoromethoxy)pyrrolidine-1-carbonyl]pyridin-2-yl}bicyclo[1.1.1]pentan-1-yl)-3,4-dihydro-2H-1-benzopyran-2-carboxamide]	7.30 to 8.00
O=C(NC12CC(n3cc(OC[C@H]4C[C@H](OC(F)(F)F)C4)cn3)(C1)C2)[C@H]1C[C@@H](O)c2cc(Cl)ccc2O1 [Compound 584, (2R,4R)-6-chloro-4-hydroxy-N-[3-(4-{[(1r,3R)-3-(trifluoromethoxy)cyclobutyl]methoxy}-1H-pyrazol-1-yl)bicyclo[1.1.1]pentan-1-yl]-3,4-dihydro-2H-1-benzopyran-2-carboxamide]	> 8.00
O=C(NC12CC(n3cc(C(=O)N4CC[C@H](OC(F)(F)F)C4)cn3)(C1)C2)[C@H]1C[C@@H](O)c2cc(C(F)(F)F)ccc2O1 [Compound 326, (2R,4R)-4-hydroxy-N-(3-{4-[(3S)-3-(trifluoromethoxy)pyrrolidine-1-carbonyl]-1H-pyrazol-1-yl}bicyclo[1.1.1]pentan-1-yl)-6-(trifluoromethyl)-3,4-dihydro-2H-1-benzopyran-2-carboxamide]	> 8.00
O=C(NC12CC(n3cc(-c4ccc(OC(F)(F)F)cn4)cn3)(C1)C2)[C@H]1C[C@@H](O)c2cc(Cl)c(F)cc2O1 [Compound 361, (2R,4R)-6-chloro-7-fluoro-4-hydroxy-N-(3-{4-[5-(trifluoromethoxy)pyridin-2-yl]-1H-pyrazol-1-yl}bicyclo[1.1.1]pentan-1-yl)-3,4-dihydro-2H-1-benzopyran-2-carboxamide]	> 8.00
